# From EP4603105A1, “PHARMACEUTICAL COMPOSITION CONTAINING CYCLIC COMPOUND HAVING SELECTIVE KRAS INHIBITORY EFFECT AGAINST HRAS AND NRAS” (CHUGAI SEIYAKU KABUSHIKI KAISHA, priority 2022, dated 2024)
# *1 amine or outer side, *2 acyl side, *3 side chain or, on linkers, in order; H or OH if unused. Where a SMILES comes first, the peptide text is derived from it. Bridges are numbered along the chain shown (N, C = ends). [ ]: non-standard residue; d: D form. The star is where a group is joined. X38 = CC(C)CCN([C@@H](Cc1ccc(C(F)(F)F)cc1)C(=O)[*:2])[*:1]; hPhe(3-Cl-4-CF3) = N[C@@H](CCc1ccc(C(F)(F)F)c(Cl)c1)C(=O)O; NPrPhe(4-CF3) = CCCN[C@@H](Cc1ccc(C(F)(F)F)cc1)C(=O)O; NMeGly(cPent) = CN[C@H](C(=O)O)C1CCCC1; NEtLeu = CCN[C@@H](CC(C)C)C(=O)O; NMeD = CN[C@@H](CC(=O)O)C(=O)O; NMeL = CN[C@@H](CC(C)C)C(=O)O; Morpholide = C1CN(*)CCO1; Ac5c = NC1(C(=O)O)CCCC1; Ac4c = NC1(C(=O)O)CCC1; Sar = CNCC(=O)O
# Tests used:
# [1] = target: GDP-bound NRAS wild-type protein (Homo sapiens, UniProt P01111); assay: Binding to NRAS by surface plasmon resonance (SPR), KD and KD ratio to KRAS
# Summary of the method: (§1)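 GDP-loaded biotinylated Avi-tag RAS proteins (E. coli-expressed) captured on a Biotin CAPture chip at ~100–300 RU; single-cycle kinetics at 30°C, 100 µL/min, 75 s injections of rising compound concentrations. HBS pH 7.4 running buffer with 1 mM DTT, 10 mM MgCl2, 10 µM GDP, 4% DMSO. KD from 1:1 binding fit.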
# [2] = target: HRAS wild-type protein (Homo sapiens, UniProt P01112); assay: Binding to HRAS by surface plasmon resonance (SPR), KD and KD ratio to KRAS
# Summary of the method: as §1
# [3] = tested on: human lung cancer strain NCI-H441; format: cell-based
# Summary of the method: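 Readout: […] after the ATP-based reagent. Compound: serial dilutions in dimethyl sulfoxide.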
# [4] = ratio of KD value for GDP-bound NRAS wild-type protein to KD value for KRAS (SPR)
# [5] = ratio of KD value for HRAS wild-type protein to KD value for KRAS (SPR)
# [6] = ratio of the KD value with respect to GDP-bound NRAS wild-type protein to the KD value with respect to KRAS
# [7] = ratio of the KD value with respect to HRAS wild-type protein to the KD value with respect to KRAS
# [8] = ratio of KD for GDP-bound NRAS wild-type protein to KD for KRAS
# [9] = ratio of KD for HRAS wild-type protein to KD for KRAS
# Chain of HRAS wild-type protein (P01112 whole entry): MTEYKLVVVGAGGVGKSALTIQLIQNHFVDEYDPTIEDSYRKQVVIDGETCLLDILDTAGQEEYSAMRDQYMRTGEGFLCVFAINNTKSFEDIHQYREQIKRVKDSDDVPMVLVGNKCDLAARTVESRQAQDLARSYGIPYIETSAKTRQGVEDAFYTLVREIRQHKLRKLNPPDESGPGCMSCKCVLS
# Chain of GDP-bound NRAS wild-type protein (P01111 whole entry): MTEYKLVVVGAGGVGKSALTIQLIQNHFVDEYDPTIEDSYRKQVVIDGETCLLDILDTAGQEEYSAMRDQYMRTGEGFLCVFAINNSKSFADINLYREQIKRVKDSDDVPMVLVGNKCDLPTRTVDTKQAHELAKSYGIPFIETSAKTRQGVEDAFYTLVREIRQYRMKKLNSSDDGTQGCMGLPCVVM
SMILES,"NRAS /KRAS [1, 4]","HRAS /KRAS [2, 5]",IC50 [3],"NRAS /KRAS [1, 6]","HRAS /KRAS [2, 7]","NRAS /KRAS [1, 8]","HRAS /KRAS [2, 9]"
CCO[C@@H]1C[C@H]2C(=O)NC3(CCC3)C(=O)N(C)[C@@H](C(CC)CC)C(=O)N(C)[C@H](C(=O)N(C)C)CC(=O)N(C)[C@@H](CC(C)C)C(=O)N[C@@H]([C@@H](C)CC)C(=O)N(C)CC(=O)N(C)[C@H]3C/C=C\CCN(C3=O)[C@@H](Cc3ccc(F)cc3)C(=O)N(C)CC(=O)N[C@@H](CCc3cc(F)c(C(F)(F)F)c(F)c3)C(=O)N2C1 [PP1519],A (a compound having 10 or more and less than 20 is denoted as A),A (a compound having 10 or more and less than 20 is denoted as A),78.2 nM,,,,
CC[C@H](C)[C@@H]1NC(=O)[C@H](CC)N(C)C(=O)C[C@@H](C(=O)N(C)C)N(C)C(=O)[C@H](C2CCCC2)N(C)C(=O)C2(CCC2)NC(=O)[C@@H]2CCN2C(=O)[C@H](CCc2cc(F)c(C(F)(F)F)c(F)c2)NC(=O)CN(C)C(=O)[C@H](Cc2ccc(C(F)(F)F)cc2)N2CCCC[C@@H](C2=O)N(C)C(=O)CN(C)C1=O [PP0657],,,32.9 nM,B (a compound having 3 or more and less than 10 is denoted as B),B (a compound having 3 or more and less than 10 is denoted as B),,
CC[C@H](C)[C@@H]1NC(=O)[C@H](CC)N(C)C(=O)C[C@@H](C(=O)N(C)C)N(C)C(=O)[C@H](C2CCCC2)N(C)C(=O)C2(CCC2)NC(=O)[C@@H]2C[C@H](N3CCC(F)(F)CC3)CN2C(=O)[C@H](CCc2cc(F)c(C(F)(F)F)c(F)c2)NC(=O)CN(C)C(=O)[C@H](Cc2ccc(C(F)(F)F)cc2)N2CCCCC[C@@H](C2=O)N(C)C(=O)CN(C)C1=O [PP0731],,,110 nM,B (a compound having 3 or more and less than 10 is denoted as B),B (a compound having 3 or more and less than 10 is denoted as B),,
CC[C@H](C)[C@@H]1NC(=O)[C@H](CC(C)C)N(C)C(=O)C[C@@H](C(=O)N2CCOCC2)N(C)C(=O)[C@H](C2CCCC2)N(C)C(=O)C2(CCC2)NC(=O)[C@@H]2[C@@H](OC)CCN2C(=O)[C@H](CCc2cc(F)c(C(F)(F)F)c(F)c2)NC(=O)CN(C)C(=O)[C@H](Cc2ccc(C(F)(F)F)cc2)N2CCCCC[C@@H](C2=O)N(C)C(=O)CN(C)C1=O [PP1067],,,299 nM,,,B (a compound having 3 or more and less than 10 is denoted as B),B (a compound having 3 or more and less than 10 is denoted as B)
CCO[C@@H]1C[C@H]2C(=O)NC3(CC(C)(C)C3)C(=O)N(C)[C@@H](C(CC)CC)C(=O)N(C)[C@H](C(=O)N(C)C)CC(=O)N(C)[C@@H](C(C)C)C(=O)N[C@@H]([C@@H](C)CC)C(=O)N(C)CC(=O)N(C)[C@H]3C/C=C\CCN(C3=O)[C@@H](Cc3ccc(C(F)(F)F)cc3)C(=O)N(C)CC(=O)N[C@@H](CCc3ccc(C(F)(F)F)c(OC)c3)C(=O)N2C1 [PP2165],,,17.5 nM,A (a compound having 10 or more and less than 20 is denoted as A),A (a compound having 10 or more and less than 20 is denoted as A),,
CCCN1C(=O)CN(C)C(=O)CN(C)C(=O)[C@H]([C@@H](C)CC)NC(=O)[C@H](CC(C)C)N(CC)C(=O)C[C@@H](C(=O)N2CCOCC2)N(C)C(=O)[C@H](C2CCCC2)N(C)C(=O)C2(CCC2)NC(=O)[C@@H]2CCCN2C(=O)[C@H](CCc2ccc(C(F)(F)F)c(Cl)c2)NC(=O)CN(C)C(=O)[C@@H]1Cc1ccc(C(F)(F)F)cc1 [PP1946] ([NEtLeu]I[Sar][Sar][NPrPhe(4-CF3)][Sar][hPhe(3-Cl-4-CF3)]P[Ac4c][NMeGly(cPent)][NMeD]-Morpholide; lactam N-11),,,15.2 nM,B (a compound having 3 or more and less than 10 is denoted as B),C (A compound having a KD ratio of 0.1 or more and less than 3 is denoted as C),,
CCO[C@@H]1C[C@H]2C(=O)NC3(CC(C)(C)C3)C(=O)N(C)[C@@H](C3CCCC3)C(=O)N(C)[C@H](C(=O)N(C)C)CC(=O)N(C)[C@@H](CC3CC3)C(=O)N[C@@H]([C@@H](C)CC)C(=O)N(C)CC(=O)N(C)[C@H]3C/C=C\CCN(C3=O)[C@@H](Cc3ccc(C(F)(F)F)cc3)C(=O)N(C)CC(=O)N[C@@H](CCc3cc(F)c(Cl)c(F)c3)C(=O)N2C1 [PP1759],A (a compound having 10 or more and less than 20 is denoted as A),A (a compound having 10 or more and less than 20 is denoted as A),6.2 nM,,,,
CCO[C@@H]1C[C@H]2C(=O)NC3(CCC3)C(=O)N(C)[C@@H](C3CCCC3)C(=O)N(C)[C@H](C(=O)N(C)C)CC(=O)N(C)[C@@H](CC(C)(C)C)C(=O)N[C@@H]([C@@H](C)CC)C(=O)N(C)CC(=O)N(C)[C@H]3C/C=C\CCN(C3=O)[C@@H](Cc3ccc(C(F)(F)F)cc3)C(=O)N(C)CC(=O)N[C@@H](CCc3cc(F)c(C(F)(F)F)c(F)c3)C(=O)N2C1 [PP1117],,,16.5 nM,,,A (a compound having 10 or more and less than 20 is denoted as A),A (a compound having 10 or more and less than 20 is denoted as A)
CCO[C@@H]1C[C@H]2C(=O)NC3(CCC3)C(=O)N(C)[C@@H](C3CCCC3)C(=O)N(C)[C@H](C(=O)N(C)C)CC(=O)N(C)[C@@H](CC3CCCCC3)C(=O)N[C@@H]([C@@H](C)CC)C(=O)N(C)CC(=O)N(C)[C@H]3CCCCN(C3=O)[C@@H](Cc3ccc(C(F)(F)F)cc3)C(=O)N(C)CC(=O)N[C@@H](CCc3cc(F)c(C(F)(F)F)c(F)c3)C(=O)N2C1 [PP0701],,,3.8 nM,C (A compound having a KD ratio of 0.1 or more and less than 3 is denoted as C),B (a compound having 3 or more and less than 10 is denoted as B),,
CC[C@H](C)[C@@H]1NC(=O)[C@H](CC(C)C)N(C)C(=O)C[C@@H](C(=O)N(C)C)N(C)C(=O)[C@H](C2CCCC2)N(C)C(=O)C2(CCC2)NC(=O)[C@@H]2C[C@@H](C)CN2C(=O)[C@H](CCc2ccc(C(F)(F)F)c(Cl)c2)NC(=O)CN(C)C(=O)[C@H](Cc2ccc(C)cc2)N2CC/C=C\C[C@@H](C2=O)N(C)C(=O)CN(C)C1=O [PP1854],A (a compound having 10 or more and less than 20 is denoted as A),A (a compound having 10 or more and less than 20 is denoted as A),5.2 nM,,,,
CCO[C@@H]1C[C@H]2C(=O)NC3(CC(C)(C)C3)C(=O)N(C)[C@@H](C(CC)CC)C(=O)N(C)[C@H](C(=O)N3CCCC3)CC(=O)N(C)[C@@H](C)C(=O)N[C@@H]([C@@H](C)CC)C(=O)N(C)CC(=O)N(C)[C@H]3C/C=C\CCN(C3=O)[C@@H](Cc3ccc(C)cc3)C(=O)N(C)CC(=O)N[C@@H](CCc3ccc(C(F)(F)F)c(OC)c3)C(=O)N2C1 [PP2169],,,62.1 nM,AA (a compound having 20 or more is denoted as AA),A (a compound having 10 or more and less than 20 is denoted as A),,
CCO[C@@H]1C[C@H]2C(=O)NC3(CC(C)(C)C3)C(=O)N(C)[C@@H](C3CCCC3)C(=O)N(C)[C@H](CC)CC(=O)N(C)[C@@H](CC3CC3)C(=O)N[C@@H]([C@@H](C)CC)C(=O)N(C)CC(=O)N(C)[C@H]3C/C=C\CCN(C3=O)[C@@H](Cc3ccc(C(F)(F)F)cc3)C(=O)N(C)CC(=O)N[C@@H](CCc3cc(F)c(C(F)(F)F)c(F)c3)C(=O)N2C1 [PP1629],B (a compound having 3 or more and less than 10 is denoted as B),B (a compound having 3 or more and less than 10 is denoted as B),20.7 nM,,,,
CC[C@H](C)[C@@H]1NC(=O)[C@H](CC(C)C)N(C)C(=O)C[C@@H](C(=O)N2CCOCC2)N(C)C(=O)[C@H](C2CCCC2)N(C)C(=O)C2(CCCC2)NC(=O)[C@@H]2CCCN2C(=O)[C@H](CCc2ccc(C(F)(F)F)c(Cl)c2)NC(=O)CN(C)C(=O)[C@H](Cc2ccc(C(F)(F)F)cc2)N(CCC(C)C)C(=O)CN(C)C(=O)CN(C)C1=O [PP0126] ([NMeL]I[Sar][Sar][X38][Sar][hPhe(3-Cl-4-CF3)]P[Ac5c][NMeGly(cPent)][NMeD]-Morpholide; lactam N-11),,,9.3 nM,,,C (A compound having a KD ratio of 0.1 or more and less than 3 is denoted as C),C (A compound having a KD ratio of 0.1 or more and less than 3 is denoted as C)
CCO[C@@H]1C[C@H]2C(=O)NC3(CCC3)C(=O)N(C)[C@@H](C3CCCC3)C(=O)N(C)[C@H](C(=O)N(C)CC)CC(=O)N(C)[C@@H](CC3CC3)C(=O)N[C@@H]([C@@H](C)CC)C(=O)N(C)CC(=O)N(C)[C@H]3C/C=C\CCN(C3=O)[C@@H](Cc3ccc(C)cc3)C(=O)N(C)CC(=O)N[C@@H](CCc3ccc(C(F)(F)F)c(OC)c3)C(=O)N2C1 [PP1879],A (a compound having 10 or more and less than 20 is denoted as A),B (a compound having 3 or more and less than 10 is denoted as B),16.9 nM,,,,
